In ChEMBL document CHEMBL2062432, “Design and synthesis of novel DFG-out RAF/vascular endothelial growth factor receptor 2 (VEGFR2) inhibitors: 2. Synthesis and characterization of a novel imide-type prodrug for improving oral absorption” (Bioorg Med Chem, 2012):

Legend:
A-375 [1] = assay: Antitumor activity against human A375 cells xenografted in athymic nude F344/N jcl-rnu/rnu […] assessed as tumor regression at 129 mg/kg, po administered BID for 2 weeks measured on day 14 relative to control; type: functional
Rattus norvegicus [2] = assay: AUC (0 to 24 hrs) in nude rat assessed as 2-chloro-3-(1-cyanocyclopropyl)-N-[5-({2-[(cyclopropylcarbonyl) amino][1,3]thiazolo[5,4-b]pyridin-5-yl}oxy)-2-fluorophenyl] benzamide level at 12.9 mg/kg, po administered as single dose; type: ADME, organism-based, Plasma; design: time < 24 hr, dose 12.9 mg/kg, route oral; conditions: in vivo
Mus musculus [3] = assay: Inhibition of VEGFR2-mediated ERK1/2 phosphorylation in human A375 cells xenografted athymic nude F344/N Jcl-rnu/rnu […] at 12.9 mg/kg, po administered as single dose after 4 hrs by immunoblotting relative to vehicle-treated control; values are per cent of control; conditions: A-375, po
Mus musculus [4] = assay: Inhibition of VEGFR2-mediated ERK1/2 phosphorylation in human A375 cells xenografted athymic nude F344/N Jcl-rnu/rnu […] at 32.3 mg/kg, po administered as single dose after 4 hrs by immunoblotting relative to vehicle-treated control; values are per cent of control; conditions: A-375, po
Rhesus monkey [5] = assay: AUC (0 to 24 hrs) in monkey assessed as tert-butyl 5-(2-(cyclopropanecarboxamido)thiazolo[5,4-b]pyridin-5-yloxy)-2-fluorophenylcarbamate level at 32.3 mg/kg, po administered as single dose; type: ADME, organism-based, Macaca mulatta, Plasma; design: time < 24 hr, dose 32.3 mg/kg, route oral; conditions: in vivo
[6] = Thermodynamic solubility of the compound in JP2 solution at pH 6.8 in presence of 20 mM bile acid; type: physicochemical; conditions: JP2 solution with 20 mM bile acid, read-out: Therm_solubility
Rattus norvegicus [7] = assay: AUC (0 to 24 hrs) in nude rat assessed as 2-chloro-3-(1-cyanocyclopropyl)-N-[5-({2-[(cyclopropylcarbonyl) amino][1,3]thiazolo[5,4-b]pyridin-5-yl}oxy)-2-fluorophenyl] benzamide level at 64.6 mg/kg, po administered as single dose; type: ADME, organism-based, Plasma; design: time < 24 hr, dose 64.6 mg/kg, route oral; conditions: in vivo
Rhesus monkey [8] = assay: AUC (0 to 24 hrs) in monkey assessed as 2-chloro-3-(1-cyanocyclopropyl)-N-[5-({2-[(cyclopropylcarbonyl) amino][1,3]thiazolo[5,4-b]pyridin-5-yl}oxy)-2-fluorophenyl] benzamide level at 32.3 mg/kg, po administered as single dose; type: ADME, organism-based, Macaca mulatta, Plasma; design: time < 24 hr, dose 32.3 mg/kg, route oral; conditions: in vivo
Mus musculus [9] = assay: AUC (0 to 24 hrs) in mouse assessed as 2-chloro-3-(1-cyanocyclopropyl)-N-[5-({2-[(cyclopropylcarbonyl) amino][1,3]thiazolo[5,4-b]pyridin-5-yl}oxy)-2-fluorophenyl] benzamide level at 32.3 mg/kg, po administered as single dose; type: ADME, organism-based, Plasma; design: time < 24 hr, dose 32.3 mg/kg, route oral; conditions: in vivo
Liver [10] = assay: (§1) Ratio of prodrug conversion assessed a 2-chloro-3-(1-cyanocyclopropyl)-N-[5-({2-[(cyclopropylcarbonyl) amino][1,3]thiazolo[5,4-b]pyridin-5-yl}oxy)-2-fluorophenyl] benzamide level to drug metabolism assessed as tert-butyl 5-(2-(cyclopropanecarboxamido)thiazolo[5,4-b]pyridin-5-yloxy)-2-fluorophenylcarbamate level in dog liver microsomes; type: ADME, Canis lupus familiaris, Microsome
Canis familiaris [11] = assay: AUC (0 to 24 hrs) in dog assessed as tert-butyl 2-chloro-3-(1-cyanocyclopropyl)benzoyl(5-(2-(cyclopropanecarboxamido)thiazolo[5,4-b]pyridin-5-yloxy)-2-fluorophenyl)carbamate level at 32.3 mg/kg, po administered as single dose; type: ADME, organism-based, Canis lupus familiaris, Plasma; design: time < 24 hr, dose 32.3 mg/kg, route oral; conditions: in vivo
Canis familiaris [12] = assay: AUC (0 to 24 hrs) in dog assessed as tert-butyl 5-(2-(cyclopropanecarboxamido)thiazolo[5,4-b]pyridin-5-yloxy)-2-fluorophenylcarbamate level at 32.3 mg/kg, po administered as single dose; type: ADME, organism-based, Canis lupus familiaris, Plasma; design: time < 24 hr, dose 32.3 mg/kg, route oral; conditions: in vivo
Rhesus monkey [13] = assay: AUC (0 to 24 hrs) in monkey assessed as tert-butyl 2-chloro-3-(1-cyanocyclopropyl)benzoyl(5-(2-(cyclopropanecarboxamido)thiazolo[5,4-b]pyridin-5-yloxy)-2-fluorophenyl)carbamate level at 32.3 mg/kg, po administered as single dose; type: ADME, organism-based, Macaca mulatta, Plasma; design: time < 24 hr, dose 32.3 mg/kg, route oral; conditions: in vivo
Liver microsomes [14] = assay: as §1, with “rat” for “dog”; type: ADME, Microsome
Rattus norvegicus [15] = assay: (§2) Ratio of AUC (0 to 24 hrs) assessed as 2-chloro-3-(1-cyanocyclopropyl)-N-[5-({2-[(cyclopropylcarbonyl) amino][1,3]thiazolo[5,4-b]pyridin-5-yl}oxy)-2-fluorophenyl] benzamide level to AUC (0 to 24hrs) assessed as tert-butyl 5-(2-(cyclopropanecarboxamido)thiazolo[5,4-b]pyridin-5-yloxy)-2-fluorophenylcarbamate level in nude rat at 64.6 mg/kg, po; type: ADME, organism-based; design: dose 64.6 mg/kg, route oral; conditions: in vivo
Rhesus monkey [16] = assay: as §2, with “hrs) in monkey” for “hrs)”, “24hrs) in monkey” for “24hrs)”, “level” for “level in nude rat at 64.6 mg/kg, po”; type: ADME, organism-based, Macaca mulatta; conditions: in vivo
Rattus norvegicus [17] = assay: AUC (0 to 24 hrs) in nude rat assessed as tert-butyl 2-chloro-3-(1-cyanocyclopropyl)benzoyl(5-(2-(cyclopropanecarboxamido)thiazolo[5,4-b]pyridin-5-yloxy)-2-fluorophenyl)carbamate level at 12.9 mg/kg, po administered as single dose; type: ADME, organism-based, Plasma; design: time < 24 hr, dose 12.9 mg/kg, route oral; conditions: in vivo
Canis familiaris [18] = organism: Canis familiaris; assay: as §2, with “hrs) in dog” for “hrs)”, “24hrs) in dog” for “24hrs)”, “level” for “level in nude rat at 64.6 mg/kg, po”; type: ADME, organism-based, Canis lupus familiaris; conditions: in vivo
Liver microsomes [19] = assay: as §1, with “human” for “dog”; type: ADME, Microsome
Rattus norvegicus [20] = assay: as §2, with “12.9” for “64.6”; type: ADME, organism-based; design: dose 12.9 mg/kg, route oral; conditions: in vivo
Mus musculus [21] = assay: AUC (0 to 24 hrs) in mouse assessed as tert-butyl 5-(2-(cyclopropanecarboxamido)thiazolo[5,4-b]pyridin-5-yloxy)-2-fluorophenylcarbamate level at 32.3 mg/kg, po administered as single dose; type: ADME, organism-based, Plasma; design: time < 24 hr, dose 32.3 mg/kg, route oral; conditions: in vivo
Canis familiaris [22] = assay: AUC (0 to 24 hrs) in dog assessed as 2-chloro-3-(1-cyanocyclopropyl)-N-[5-({2-[(cyclopropylcarbonyl) amino][1,3]thiazolo[5,4-b]pyridin-5-yl}oxy)-2-fluorophenyl] benzamide level at 32.3 mg/kg, po administered as single dose; type: ADME, organism-based, Canis lupus familiaris, Plasma; design: time < 24 hr, dose 32.3 mg/kg, route oral; conditions: in vivo
Rattus norvegicus [23] = assay: AUC (0 to 24 hrs) in nude rat assessed as tert-butyl 2-chloro-3-(1-cyanocyclopropyl)benzoyl(5-(2-(cyclopropanecarboxamido)thiazolo[5,4-b]pyridin-5-yloxy)-2-fluorophenyl)carbamate level at 64.6 mg/kg, po administered as single dose; type: ADME, organism-based, Plasma; design: time < 24 hr, dose 64.6 mg/kg, route oral; conditions: in vivo
Liver [24] = assay: Prodrug conversion in dog liver microsomes assessed as 2-chloro-3-(1-cyanocyclopropyl)-N-[5-({2-[(cyclopropylcarbonyl) amino][1,3]thiazolo[5,4-b]pyridin-5-yl}oxy)-2-fluorophenyl] benzamide level at 10 umol/L after 2 hrs; type: ADME, Canis lupus familiaris, Microsome; conditions: 10 µM
Liver [25] = assay: as §1, with “mouse” for “dog”; type: ADME, Microsome
Mus musculus [26] = assay: Inhibition of VEGFR2-mediated ERK1/2 phosphorylation in human A375 cells xenografted athymic nude F344/N Jcl-rnu/rnu […] at 129 mg/kg, po administered as single dose after 4 hrs by immunoblotting relative to vehicle-treated control; values are per cent of control; conditions: A-375, po
Mus musculus [27] = organism: Mus musculus; assay: as §2, with “hrs) in mouse” for “hrs)”, “24hrs) in mouse” for “24hrs)”, “level” for “level in nude rat at 64.6 mg/kg, po”; type: ADME, organism-based; conditions: in vivo
[28] = as §1, with “monkey” for “dog”; type: ADME, Macaca mulatta, Microsome; conditions: rhesus monkey
Rattus norvegicus [29] = assay: AUC (0 to 24 hrs) in nude rat assessed as tert-butyl 5-(2-(cyclopropanecarboxamido)thiazolo[5,4-b]pyridin-5-yloxy)-2-fluorophenylcarbamate level at 64.6 mg/kg, po administered as single dose; type: ADME, organism-based, Plasma; design: time < 24 hr, dose 64.6 mg/kg, route oral; conditions: in vivo
Rattus norvegicus [30] = assay: AUC (0 to 24 hrs) in nude rat assessed as tert-butyl 5-(2-(cyclopropanecarboxamido)thiazolo[5,4-b]pyridin-5-yloxy)-2-fluorophenylcarbamate level at 12.9 mg/kg, po administered as single dose; type: ADME, organism-based, Plasma; design: time < 24 hr, dose 12.9 mg/kg, route oral; conditions: in vivo
[31] = Metabolic stability in human liver microsomes assessed as compound remaining at 30 uM after 60 mins by HPLC analysis; type: ADME, Microsome; conditions: read-out: Stability
A-375 [32] = assay: Antitumor activity against human A375 cells xenografted in athymic nude F344/N jcl-rnu/rnu […] assessed as tumor regression at >32.3 mg/kg, po administered BID for 2 weeks measured on day 14 relative to control; type: functional, organism-based
Mus musculus [33] = assay: Inhibition of […] ERK1/2 phosphorylation in human A375 cells xenografted po dosed athymic nude F344/N […] administered as single dose after 4 hrs by immunoblotting; type: functional, organism-based; conditions: A-375
[34] = biological target: Serine/threonine-protein kinase B-raf (Homo sapiens, UniProt P15056, V600E); assay: Inhibition of BRAF V600E mutant
Chain of Serine/threonine-protein kinase B-raf (P15056 2-766 V600E limits assumed): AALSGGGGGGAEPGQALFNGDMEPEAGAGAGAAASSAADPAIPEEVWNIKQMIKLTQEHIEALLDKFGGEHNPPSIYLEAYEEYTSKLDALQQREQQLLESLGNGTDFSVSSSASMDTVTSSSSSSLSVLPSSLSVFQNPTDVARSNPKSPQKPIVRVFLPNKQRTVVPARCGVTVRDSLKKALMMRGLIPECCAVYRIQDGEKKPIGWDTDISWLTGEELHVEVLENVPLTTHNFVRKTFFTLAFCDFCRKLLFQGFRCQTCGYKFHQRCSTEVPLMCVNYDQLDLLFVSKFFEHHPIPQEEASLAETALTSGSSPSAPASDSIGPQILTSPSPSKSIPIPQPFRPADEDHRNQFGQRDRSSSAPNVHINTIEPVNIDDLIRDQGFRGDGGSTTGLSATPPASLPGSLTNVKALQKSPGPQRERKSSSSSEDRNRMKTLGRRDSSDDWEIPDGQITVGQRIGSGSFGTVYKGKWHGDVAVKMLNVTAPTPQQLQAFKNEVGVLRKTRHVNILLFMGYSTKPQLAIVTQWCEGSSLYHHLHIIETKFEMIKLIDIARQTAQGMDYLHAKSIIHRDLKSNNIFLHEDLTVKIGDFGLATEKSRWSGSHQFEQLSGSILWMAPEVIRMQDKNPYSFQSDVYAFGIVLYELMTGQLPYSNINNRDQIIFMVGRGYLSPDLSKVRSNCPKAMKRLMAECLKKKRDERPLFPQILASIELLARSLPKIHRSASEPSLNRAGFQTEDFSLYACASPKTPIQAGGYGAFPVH

Work on CC(=O)O.CC(C)(C)OC(=O)N(C(=O)c1cccc(C2(C#N)CC2)c1Cl)c1cc(Oc2ccc3nc(NC(=O)C4CC4)sc3n2)ccc1F yielded a T/C (A-375 [1]) of 6.4%, an AUC (Rattus norvegicus [2]) of 1.39 µg·h/mL and a level, % of control at 12.9 mg/kg (Mus musculus [3]) of 52.7%. It also gave a level, % of control at 32.3 mg/kg (Mus musculus [4]) of 34.1%, an AUC (Rhesus monkey [5]) of 0.03 µg·h/mL and a solubility thermodynamic [6] of 19 µg/mL. For the same molecule, the AUC (Rattus norvegicus [7]) was 4.28 µg·h/mL, the AUC (Rhesus monkey [8]) was 9.9 µg·h/mL and the AUC (Mus musculus [9]) was 4.9 µg·h/mL. The Ratio (Liver [10]) was 3.3, the AUC (Canis familiaris [11]) was 0.53 µg·h/mL and the AUC (Canis familiaris [12]) was 0.63 µg·h/mL. The AUC (Rhesus monkey [13]) was 0.53 µg·h/mL, the Ratio (Liver microsomes [14]) was 0.76 and the “Ratio AUC” value (Rattus norvegicus [15]) was 2.4. For the same molecule, the “Ratio AUC” value (Rhesus monkey [16]) was 330, the AUC (Rattus norvegicus [17]) was 0.02 µg·h/mL and the “Ratio AUC” value (Canis familiaris [18]) was 40. For the same molecule, the Ratio (Liver microsomes [19]) was 152, the “Ratio AUC” value (Rattus norvegicus [20]) was 2.4 and the AUC (Mus musculus [21]) was 0.5 µg·h/mL. It also gave an AUC (Canis familiaris [22]) of 25.33 µg·h/mL, an AUC (Rattus norvegicus [23]) of 0.08 µg·h/mL and a Drug metabolism (Liver [24]) of 2.3%. The Ratio (Liver [25]) was 19, the level, % of control at 129 mg/kg (Mus musculus [26]) was 20.1% and the “Ratio AUC” value (Mus musculus [27]) was 9.8. The Ratio [28] was 3, the AUC (Rattus norvegicus [29]) was 1.8 µg·h/mL and the AUC (Rattus norvegicus [30]) was 0.57 µg·h/mL.

CC(C)(C)OC(=O)N(C(=O)c1cccc(C2(C#N)CC2)c1Cl)c1cc(Oc2ccc3nc(NC(=O)C4CC4)sc3n2)ccc1F.O gave a solubility thermodynamic [6] of 49 µg/mL.

For N#CC1(c2cccc(C(=O)Nc3cc(Oc4ccc5nc(NC(=O)C6CC6)sc5n4)ccc3F)c2Cl)CC1, the solubility thermodynamic [6] was 3.6 µg/mL and the remaining at 1 h, 30 µM [31] was 110%.

CCOC(=O)N(C(=O)c1cccc(C2(C#N)CC2)c1Cl)c1cc(Oc2ccc3nc(NC(=O)C4CC4)sc3n2)ccc1F showed a solubility thermodynamic [6] of 0.79 µg/mL.

With CC(C)(C)OC(=O)N(C(=O)c1cccc(C2(C#N)CC2)c1Cl)c1cc(Oc2ccc3nc(NC(=O)C4CC4)sc3n2)ccc1F.CCO the solubility thermodynamic [6] was 4.2 µg/mL.

Molecule N#CC1(c2cccc(C(=O)N(C(=O)C3CC3)c3cc(Oc4ccc5nc(NC(=O)C6CC6)sc5n4)ccc3F)c2Cl)CC1 has a solubility thermodynamic [6] of 3.2 µg/mL.

For CC(C)(C)OC(=O)N(C(=O)c1cccc(C2(C#N)CC2)c1Cl)c1cc(Oc2ccc3nc(NC(=O)C4CC4)sc3n2)ccc1F, the Activity (A-375 [32]) was “Dose-dependent effect” and the inhibition (Mus musculus [33]) was “Dose-dependent effect”.

CC(=O)Nc1nc2ccc(Oc3ccc(F)c(NC(=O)c4cccc(C5(C#N)CC5)c4Cl)c3)nc2s1 showed a remaining at 1 h, 30 µM [31] of 78.5%.

CC(C)(C)OC(=O)Nc1cc(Oc2ccc3nc(NC(=O)C4CC4)sc3n2)ccc1F gave an IC50 [34] of 2000 nM.
